Reference: ChEMBL document CHEMBL3046966, “Structure and Fungicidal Activities of 2-Methoxyimino-N-methyl-2-[2-(substituted pyridyloxymethyl)phenyl]acetamide Derivatives” (1998)

Experiments:
Type in all cases: functional
[1] = test system: Pseudoperonospora cubensis; assay: Fungicidal activity against Pseudoperonospora cubensis assessed as cucumber downy mildew disease control at 31.3 ppm foliar application 24 hr after inoculation by preventive manner
Botrytis cinerea [2] = assay: Fungicidal activity against Botryotinia fuckeliana assessed as cucumber gray mold disease control at 7.8 ppm foliar application 24 hr before inoculation by preventive manner
Podosphaera fuliginea [3] = assay: Fungicidal activity against Podosphaera fuligineas assessed as cucumber […] mildew disease control at 7.8 ppm foliar application 24 hr after inoculation by curative manner
[4] = test system: Pseudoperonospora cubensis; assay: Fungicidal activity against Pseudoperonospora cubensis assessed as cucumber downy mildew disease control at 2 ppm foliar application 24 hr after inoculation by curative manner
Botrytis cinerea [5] = assay: Fungicidal activity against Botryotinia fuckeliana assessed as cucumber gray mold disease control at 7.8 ppm foliar application 24 hr after inoculation by curative manner
Podosphaera fuliginea [6] = assay: Fungicidal activity against Podosphaera fuligineas assessed as cucumber […] mildew disease control at 7.8 ppm foliar application 24 hr before inoculation by preventive manner
[7] = test system: Blumeria graminis f. sp. tritici; assay: Fungicidal activity against Blumeria graminis f. sp. tritici assessed as wheat powdery mildew disease control at 7.8 ppm foliar application for 24 hr after inoculation by curative manner
[8] = test system: Blumeria graminis f. sp. tritici; assay: Fungicidal activity against Blumeria graminis f. sp. tritici assessed as wheat powdery mildew disease control at 2 ppm foliar application for 24 hr before inoculation by preventive manner
Pyricularia oryzae [9] = assay: Fungicidal activity against Magnaporthe oryzae assessed as rice blast disease control at 31.3 ppm foliar application for 24 hr after inoculation by curative manner
Pyricularia oryzae [10] = assay: Fungicidal activity against Magnaporthe oryzae assessed as rice blast disease control at 31.3 ppm foliar application for 24 hr before inoculation by preventive manner
[11] = test system: Pseudoperonospora cubensis; assay: Fungicidal activity against Pseudoperonospora cubensis assessed as cucumber downy mildew disease control at 125 ppm foliar application 24 hr after inoculation by preventive manner
Botrytis cinerea [12] = assay: Fungicidal activity against Botryotinia fuckeliana assessed as cucumber gray mold disease control at 31.3 ppm foliar application 24 hr before inoculation by preventive manner
[13] = test system: Pseudoperonospora cubensis; assay: Fungicidal activity against Pseudoperonospora cubensis assessed as cucumber downy mildew disease control at 7.8 ppm foliar application 24 hr after inoculation by curative manner
[14] = test system: Blumeria graminis f. sp. tritici; assay: Fungicidal activity against Blumeria graminis f. sp. tritici assessed as wheat powdery mildew disease control at 31.3 ppm foliar application for 24 hr after inoculation by curative manner
Podosphaera fuliginea [15] = assay: Fungicidal activity against Podosphaera fuligineas assessed as cucumber […] mildew disease control at 31.3 ppm foliar application 24 hr before inoculation by preventive manner
Pyricularia oryzae [16] = assay: Fungicidal activity against Magnaporthe oryzae assessed as rice blast disease control at 7.8 ppm foliar application for 24 hr after inoculation by curative manner
Botrytis cinerea [17] = assay: Fungicidal activity against Botryotinia fuckeliana assessed as cucumber gray mold disease control at 125 ppm foliar application 24 hr before inoculation by preventive manner
Podosphaera fuliginea [18] = assay: Fungicidal activity against Podosphaera fuligineas assessed as cucumber […] mildew disease control at 125 ppm foliar application 24 hr after inoculation by curative manner
Botrytis cinerea [19] = assay: Fungicidal activity against Botryotinia fuckeliana assessed as cucumber gray mold disease control at 125 ppm foliar application 24 hr after inoculation by curative manner
Podosphaera fuliginea [20] = assay: Fungicidal activity against Podosphaera fuligineas assessed as cucumber […] mildew disease control at 125 ppm foliar application 24 hr before inoculation by preventive manner
[21] = test system: Blumeria graminis f. sp. tritici; assay: Fungicidal activity against Blumeria graminis f. sp. tritici assessed as wheat powdery mildew disease control at 125 ppm foliar application for 24 hr before inoculation by preventive manner
Botrytis cinerea [22] = assay: Fungicidal activity against Botryotinia fuckeliana assessed as cucumber gray mold disease control at 2 ppm foliar application 24 hr after inoculation by curative manner
[23] = test system: Blumeria graminis f. sp. tritici; assay: Fungicidal activity against Blumeria graminis f. sp. tritici assessed as wheat powdery mildew disease control at 7.8 ppm foliar application for 24 hr before inoculation by preventive manner
[24] = test system: Pseudoperonospora cubensis; assay: Fungicidal activity against Pseudoperonospora cubensis assessed as cucumber downy mildew disease control at 31.3 ppm foliar application 24 hr after inoculation by curative manner
[25] = test system: Blumeria graminis f. sp. tritici; assay: Fungicidal activity against Blumeria graminis f. sp. tritici assessed as wheat powdery mildew disease control at 31.3 ppm foliar application for 24 hr before inoculation by preventive manner
Podosphaera fuliginea [26] = assay: Fungicidal activity against Podosphaera fuligineas assessed as cucumber […] mildew disease control at 31.3 ppm foliar application 24 hr after inoculation by curative manner
[27] = test system: Blumeria graminis f. sp. tritici; assay: Fungicidal activity against Blumeria graminis f. sp. tritici assessed as wheat powdery mildew disease control at 125 ppm foliar application for 24 hr after inoculation by curative manner
Pyricularia oryzae [28] = assay: Fungicidal activity against Magnaporthe oryzae assessed as rice blast disease control at 125 ppm foliar application for 24 hr before inoculation by preventive manner
Pyricularia oryzae [29] = assay: Fungicidal activity against Magnaporthe oryzae assessed as rice blast disease control at 125 ppm foliar application for 24 hr after inoculation by curative manner
Podosphaera fuliginea [30] = assay: Fungicidal activity against Podosphaera fuligineas assessed as cucumber […] mildew disease control at 2 ppm foliar application 24 hr after inoculation by curative manner
Pyricularia oryzae [31] = assay: Fungicidal activity against Magnaporthe oryzae assessed as rice blast disease control at 7.8 ppm foliar application for 24 hr before inoculation by preventive manner
Podosphaera fuliginea [32] = assay: Fungicidal activity against Podosphaera fuligineas assessed as cucumber […] mildew disease control at 2 ppm foliar application 24 hr before inoculation by preventive manner
[33] = test system: Pseudoperonospora cubensis; assay: Fungicidal activity against Pseudoperonospora cubensis assessed as cucumber downy mildew disease control at 125 ppm foliar application 24 hr after inoculation by curative manner

Measured: Activity

CNC(=O)/C(=N/OC)c1ccccc1COc1cccc(Cl)n1
90%: [1] | Botrytis cinerea [2] | Podosphaera fuliginea [3] | [4] | Botrytis cinerea [5] | Podosphaera fuliginea [6] | [7] | [8] | Pyricularia oryzae [9] | Pyricularia oryzae [10]

CNC(=O)/C(=N/OC)c1ccccc1COc1cccc(Br)n1
90%: [11] | Botrytis cinerea [12] | Podosphaera fuliginea [3] | [13] | Botrytis cinerea [5] | [14] | Podosphaera fuliginea [15] | [8] | Pyricularia oryzae [16] | Pyricularia oryzae [10]

CNC(=O)/C(=N/OC)c1ccccc1COc1cc(C(F)(F)F)ccn1
<90%: [11] | Botrytis cinerea [17] | Botrytis cinerea [19]
90%: Podosphaera fuliginea [18] | [13] | [14] | Podosphaera fuliginea [20] | [21] | Pyricularia oryzae [9] | Pyricularia oryzae [10]

CNC(=O)/C(=N/OC)c1ccccc1COc1ccc(C(F)(F)F)cn1
90%: [1] | Botrytis cinerea [22] | Botrytis cinerea [2] | Podosphaera fuliginea [3] | [13] | Podosphaera fuliginea [15] | [7] | [23] | Pyricularia oryzae [9] | Pyricularia oryzae [10]

CNC(=O)/C(=N/OC)c1ccccc1COc1cccc(C(F)(F)F)n1
90%: [1] | Botrytis cinerea [12] | Podosphaera fuliginea [3] | [4] | Botrytis cinerea [19] | Podosphaera fuliginea [6] | [7] | [8] | Pyricularia oryzae [16] | Pyricularia oryzae [10]

CNC(=O)/C(=N/OC)c1ccccc1COc1cccc(OC)n1
90%: [11] | Botrytis cinerea [17] | Podosphaera fuliginea [3] | [24] | [4] | Botrytis cinerea [19] | Podosphaera fuliginea [6] | [7] | [25] | Pyricularia oryzae [9] | Pyricularia oryzae [10]

CNC(=O)/C(=N/OC)c1ccccc1COc1cccc(SC)n1
90%: [11] | Botrytis cinerea [17] | Podosphaera fuliginea [26] | [13] | Podosphaera fuliginea [15] | [21]
<90%: Botrytis cinerea [19] | [27] | Pyricularia oryzae [28]

CNC(=O)/C(=N/OC)c1ccccc1COc1cccc(OC(C)C)n1
90%: Botrytis cinerea [17] | Podosphaera fuliginea [26] | [24] | Podosphaera fuliginea [15] | [27] | [21] | Pyricularia oryzae [9] | Pyricularia oryzae [10]
<90%: [11] | Botrytis cinerea [19]

CNC(=O)/C(=N/OC)c1ccccc1COc1cc(C(F)(F)F)cc(Cl)n1
90%: Podosphaera fuliginea [18] | [13] | Podosphaera fuliginea [20] | [27] | [21] | Pyricularia oryzae [28]
<90%: [11] | Botrytis cinerea [17] | Botrytis cinerea [19] | Pyricularia oryzae [29]

CNC(=O)/C(=N/OC)c1ccccc1COc1ccc(C(F)(F)F)c(Cl)n1
90%: [1] | Botrytis cinerea [2] | [4] | Botrytis cinerea [5] | Podosphaera fuliginea [30] | Podosphaera fuliginea [15] | [7] | [23] | Pyricularia oryzae [16] | Pyricularia oryzae [31]

CNC(=O)/C(=N/OC)c1ccccc1COc1nc(OC)ccc1C(F)(F)F
90%: [11] | Botrytis cinerea [12] | [13] | Podosphaera fuliginea [30] | Podosphaera fuliginea [32] | [27] | [25] | Pyricularia oryzae [29] | Pyricularia oryzae [28]
<90%: Botrytis cinerea [19]

CNC(=O)/C(=N/OC)c1ccccc1COc1nc(OC(C)C)ccc1C(F)(F)F
<90%: [11] | Botrytis cinerea [19]
90%: Botrytis cinerea [17] | Podosphaera fuliginea [3] | [13] | [14] | Podosphaera fuliginea [6] | [23] | Pyricularia oryzae [9] | Pyricularia oryzae [10]

CNC(=O)/C(=N/OC)c1ccccc1COc1ccc(C(F)(F)F)c(OC)n1
90%: [1] | Botrytis cinerea [2] | [4] | Botrytis cinerea [19] | Podosphaera fuliginea [30] | Podosphaera fuliginea [32] | [7] | [21] | Pyricularia oryzae [29] | Pyricularia oryzae [28]

CNC(=O)/C(=N/OC)c1ccccc1COc1ccc(C(F)(F)F)c(NC)n1
<90%: Pyricularia oryzae [29] | Pyricularia oryzae [28]
90%: [11] | Botrytis cinerea [17] | Podosphaera fuliginea [3] | [13] | Botrytis cinerea [19] | Podosphaera fuliginea [6] | [27]

CNC(=O)/C(=N/OC)c1ccccc1COc1nc(Cl)c(C(F)(F)F)cc1C(F)(F)F
<90%: [33] | Pyricularia oryzae [29]
90%: Botrytis cinerea [12] | Podosphaera fuliginea [3] | [4] | Botrytis cinerea [19] | Podosphaera fuliginea [32] | [7] | [8] | Pyricularia oryzae [28]

CNC(=O)/C(=N/OC)c1ccccc1COc1nc(Cl)c(Cl)c(C(F)(F)F)c1Cl
<90%: Botrytis cinerea [19] | [27] | [21] | Pyricularia oryzae [28]
90%: Podosphaera fuliginea [18] | [33] | Podosphaera fuliginea [20]

CNC(=O)/C(=N/OC)c1ccccc1COc1cccnc1Cl
<90%: [27] | [21] | Pyricularia oryzae [28]
90%: Botrytis cinerea [12] | Botrytis cinerea [2] | Podosphaera fuliginea [26] | [33] | Botrytis cinerea [5] | Podosphaera fuliginea [15]

CNC(=O)/C(=N/OC)c1ccccc1COc1cc(C(F)(F)F)nc(C(F)(F)F)c1
90%: [33]
<90%: [11] | Botrytis cinerea [17] | Podosphaera fuliginea [18] | Podosphaera fuliginea [20] | [27] | [21] | Pyricularia oryzae [28]

CNC(=O)/C(=N\OC)c1ccccc1COc1ccccn1
90%: [21]
<90%: Botrytis cinerea [17] | Podosphaera fuliginea [18] | [33] | Podosphaera fuliginea [20] | [27] | Pyricularia oryzae [28]

CNC(=O)/C(=N\OC)c1ccccc1COc1cccc(C(F)(F)F)n1
<90%: Botrytis cinerea [19]
90%: [11] | Botrytis cinerea [17] | Podosphaera fuliginea [26] | [13] | [14] | Podosphaera fuliginea [20] | [25] | Pyricularia oryzae [9] | Pyricularia oryzae [10]

CNC(=O)/C(=N/OC)c1ccccc1COc1ncccc1Cl
90%: [1] | Botrytis cinerea [22] | Botrytis cinerea [12] | Podosphaera fuliginea [3] | [13] | Podosphaera fuliginea [6] | [7] | [23] | Pyricularia oryzae [16] | Pyricularia oryzae [10]
